Laboratory results published in article PMC11031283 (ACS synthetic biology, 2024).

Target: EncM (Streptomyces maritimus, UniProt Q9KHK2)
Assay: LC-MS product formation, low activity
Format: biochemical
Settings: in vitro purified enzyme; not detected in lysate

SMILES: CCCCCc1cc(O)c(C/C=C(\C)CCC=C(C)C)c(O)c1C(=O)O [compound 3, cannabigerolic acid]
- LC-MS product formation, low activity: several other enzymes had low activity not detected in lysate assays, including EncM
